Source: publication PMC11550998, “Novel 5-HT7 receptor antagonists modulate intestinal immune responses and reduce severity of colitis” (American Journal of Physiology - Gastrointestinal and Liver …, 2024)
Values belong to the compound of their own block, whether it stands above or below them.

Columns and labels:
[1] = Mouse in vivo pharmacokinetic studies; parameters: species or system C57BL/6 male mice
Experimental: Adult C57BL/6 male mice (2–4 mo old, body weight ranging from 20 to 25 g, Charles River Laboratories) were maintained under controlled temperature (23 ± 1°C) and lighting (lights on 6:00 AM–6:00 PM) with food and water provided ad libitum. Pharmacokinetic studies were performed either via intravenous bolus infusion or through oral gavage. Mice were administered each compound intravenously by tail vein injection (1 mg/kg) or orally through gavage (5 mg/kg). Serial blood samples were collected at 5, 15, and 30 min and 1, 2, 4, 8, and 24 h after intravenous administration, and at 15, 30 min, and 1, 2, 4, 8, and 24 h after oral gavage administration. All blood samples were centrifuged at 1,500 g for 5 min. Pharmacokinetic study procedures were approved by Temple University’s Institutional Animal Care and Usage Committee and were in accordance with National Institutes of Health (NIH) guidelines. For all in vivo efficacy studies, experiments were approved by the animal ethics committee of McMaster University and conducted under Canadian guidelines for animal research.
Plasma concentrations were determined using an LC-MS/MS method. Briefly, 100-µL acetonitrile with an internal standard solution (Diltiazem, 0.1 μg/mL) was added to 50-µL plasma or tissue homogenate. After being vortexed for 1 min, the mixture was centrifuged at 3,000 g for 5 min. LC-MS/MS analysis was carried out using a high-performance liquid chromatography system consisting of an Agilent 1100 system interfaced to an API4000 SCIEX triple-quadrupole tandem mass spectrometer (Applied Biosystems/MDS Sciex, Foster City, CA). MC-170073, MC-230078, MC-230079, and the internal standard were separated by using a Phenomenex (Torrance, CA) C18 column (2.0 × 50 mm). The mobile phase consisted of solvent A (0.1% formic acid in water) and solvent B (0.1% formic acid in acetonitrile). A linear gradient of solvent B from 5 to 95% was used. The detection and quantification of analytes were performed with the m/z transition 347/191 for MC-170073, MC-230078, and MC-230079, and m/z 415/178 for diltiazem.

[2] = tested on: DSS-induced colitis; parameters: method as in PMID 23554310; details: acute DSS-induced colitis, vs controls; cited from earlier work
[3] = tested on: naive CD4+ T cells expressing 5-HT7 receptors; parameters: method as in PMID 17158224; details: ex vivo; cited from earlier work
[4] = tested on: 2,4,6-trinitrobenzenesulfonic acid (TNBS)-induced colitis; parameters: method as in PMID 23554310, PMID 27047383; details: cited from earlier work
[5] = tested on: DSS exposure at 4% wt/vol; parameters: method as in PMID 25072499; details: DSS 4% wt/vol; untreated animals 33%; cited from earlier work
[6] = tested on: colitis induced by DSS and TNBS; details: 5-HT4 receptor agonist; cited from earlier work
[7] = male, C57BL/6, plasma, IV, 1 mg/kg
[8] = male, C57BL/6, plasma, oral gavage, 5 mg/kg

bioavailability ([1]; male, C57BL/6, mouse, plasma, oral, 5 mg/kg, 5 mg/kg oral vs 1 mg/kg IV, read-out: %F (oral bioavailability)): 10.8%
AUC [1, 7]: 97 ng·h/mL
Cmax [1, 7]: 148 ng/mL
Tmax [1, 7]: 10 min
clearance [1, 7]: 4.2 mL/min
half-life [1, 7]: 20.1 min
AUC [1, 8]: 52.5 ng·h/mL
Cmax [1, 8]: 57 ng/mL
Tmax [1, 8]: 30 min
half-life [1, 8]: 34.9 min
CL ([1]; oral gavage, 5 mg/kg): 2.07 L/h
SMILES: CCC1(CC)C[C@H](CCN2CCN(c3ccc(O)cc3)CC2)OC1=O [MC-230079]

SMILES: CC1CCN(CC[C@H]2CCCN2S(=O)(=O)c2cccc(O)c2)CC1 [SB-269970, (R)-3-(2-(2-(4-methylpiperidin-1-yl)-ethyl)pyrrolidine-1-sulfonyl)phenol]
severity of colitis and production of proinflammatory cytokines [2]: significantly reduced
rapid T cell responses upon 5-HT exposure [3]: abrogated
effect on TNBS-induced colitis [4]: only a minor impact
mortality rate [5]: > 60%

SMILES: [H]/N=C(/NCCCCC)N/N=C/c1c[nH]c2ccc(OC)cc12 [tegaserod]
effect on development of colitis [6]: protective actions
